From ChEMBL document CHEMBL3351685, “Synthesis and quantitative structure-activity relationship (QSAR) analysis of some novel oxadiazolo[3,4-d]pyrimidine nucleosides derivatives as antiviral agents” (Bioorg Med Chem Lett, 2015) come the findings set out here.

Data set [1] deals with WISH. The data set can be described thus: Cytotoxicity against human WISH cells. It counts as cell-based.
In data set [2] the test system is Vesicular stomatitis virus. Put plainly: Antiviral activity against vesicular stomatitis virus infected in human WISH cells. It is filed as functional. Particulars: for pEC50: read-out: ED50 (the source's name).
The nature of data set [3]: Selectivity index, ratio of toxic concentration for human WISH cells to ED50 for vesicular stomatitis virus infected in human WISH cells. It counts as toxicity, cell-based. Particulars: read-out: Selectivity Index.

pEC50: −log10 of the molar value. Active and inactive are the calls of the source. The rule behind the calls is not given here.

`CC(=O)OC[C@H]1O[C@@H](n2c(=O)[nH]c(=O)c3c2no[n+]3[O-])[C@H](OC(C)=O)[C@H]1OC(C)=O` displayed an Activity in data set [1] of 387 µmol/L. Moreover, the ED50 entry in data set [2] is “inactive”.

Turning to `CC(=O)OC[C@H]1O[C@H](n2c(=O)n(C)c(=O)c3c2no[n+]3[O-])[C@@H](OC(C)=O)[C@@H]1OC(C)=O`, in data set [1], the Activity is 378 µmol/L. Further, the ED50 entry in data set [2] was “inactive”.

`CCn1c(=O)c2c(no[n+]2[O-])n(COCCOC(C)=O)c1=O`: in data set [1], the Activity was found to be 408 µmol/L. Also, the ED50 entry in data set [2] was “inactive”.

For `CC(=O)OC[C@H]1O[C@@H](n2c(=O)[nH]c(=O)c3c2no[n+]3[O-])[C@H](OC(C)=O)[C@@H](OC(C)=O)[C@@H]1OC(C)=O`, the Activity in data set [1] is 1300 µmol/L. Moreover, the ED50 result in data set [2] was “inactive”.

In the case of `CCn1c(=O)c2c(no[n+]2[O-])n([C@@H]2O[C@H](COC(C)=O)[C@H](OC(C)=O)[C@H]2OC(C)=O)c1=O`, in data set [1], the Activity was 356 µmol/L. In data set [2], the pEC50 is 2.98.

For the molecule `Nc1nc2c(ncn2COCCO)c(=O)[nH]1` [ACYCLOVIR], the selectivity ratio in data set [3] worked out at 2.4. In data set [1], the Activity came out at 3414 µmol/L. Besides, in data set [2], the pEC50 was 2.85.

As for `Cn1c(=O)c2c(no[n+]2[O-])n([C@@H]2O[C@H](COCc3ccccc3)[C@@H](OCc3ccccc3)[C@H]2OCc2ccccc2)c1=O`, the Activity in data set [1] was 1055 µmol/L. Besides, in data set [2], the pEC50 was 3.33.

Molecule `CC(=O)OC[C@H]1O[C@@H](n2c(=O)[nH]c(=O)c3c2no[n+]3[O-])[C@H](OC(C)=O)[C@@H]1OC(C)=O` returned an Activity in data set [1] of 1459 µmol/L. Further, the pEC50 in data set [2] was 3.46.

In the case of `O=c1[nH]c(=O)n([C@@H]2O[C@H](COCc3ccccc3)[C@@H](OCc3ccccc3)[C@H]2OCc2ccccc2)c2no[n+]([O-])c12`, in data set [1], the Activity was 650 µmol/L. Also, the pEC50 in data set [2] is 3.13.

Regarding `CCn1c(=O)c2c(no[n+]2[O-])n([C@H]2O[C@H](COC(C)=O)[C@@H](OC(C)=O)[C@@H]2OC(C)=O)c1=O`, in data set [1], the Activity worked out at 1411 µmol/L. Besides, the pEC50 in data set [2] was 3.24.

The molecule `O=c1[nH]c(=O)n(COCCO)c2no[n+]([O-])c12` came in with an Activity in data set [1] of 2561 µmol/L. The pEC50 in data set [2] was 3.20.

For the molecule `O=c1[nH]cnc2c1ncn2[C@H]1CC[C@@H](CO)O1` [DIDANOSINE], in data set [3], the selectivity ratio turned out to be 3.34. The molecule further displayed an Activity in data set [1] of 2646 µmol/L. Further, the pEC50 in data set [2] was 3.10.

Consider `CC(=O)OCCOCn1c(=O)n(C)c(=O)c2c1no[n+]2[O-]`, for which the Activity in data set [1] is 2077 µmol/L. Further, the pEC50 in data set [2] is 3.19.

In data set [1], `CCn1c(=O)c2c(no[n+]2[O-])n(COC(COC(C)=O)COC(C)=O)c1=O` gave an Activity of 1475 µmol/L. Besides, the pEC50 in data set [2] was 3.19.

In data set [1], `CC(=O)OC[C@@H]1O[C@@H](n2c(=O)[nH]c(=O)c3c2no[n+]3[O-])[C@H](OC(C)=O)[C@H]1OC(C)=O` had an Activity of 380 µmol/L. Besides, in data set [2], the pEC50 is 3.81.

As to `CC(=O)OCCOCn1c(=O)[nH]c(=O)c2c1no[n+]2[O-]`, in data set [1], the Activity is 2083 µmol/L. Moreover, the pEC50 in data set [2] was 3.19.

The molecule `CCn1c(=O)c2c(no[n+]2[O-])n([C@@H]2O[C@@H](COC(C)=O)[C@H](OC(C)=O)[C@H]2OC(C)=O)c1=O` yielded an Activity in data set [1] of 20 µmol/L. The ED50 entry in data set [2] is “inactive”.

Take `CC(=O)OC[C@@H]1O[C@@H](n2c(=O)n(C)c(=O)c3c2no[n+]3[O-])[C@H](OC(C)=O)[C@H]1OC(C)=O`: the Activity in data set [1] was determined as 300 µmol/L. Further, the pEC50 in data set [2] is 3.87.

As for `O=c1[nH]c(=O)n([C@@H]2O[C@H](CO)[C@@H](O)[C@H]2O)c2no[n+]([O-])c12`, in data set [3], the selectivity ratio came out at 26.9. This molecule also came in with an Activity in data set [1] of 2095 µmol/L. Also, the pEC50 in data set [2] was 4.11.

In the case of `Cn1c(=O)c2c(no[n+]2[O-])n([C@@H]2O[C@H](COCc3ccccc3)[C@@H](OCc3ccccc3)[C@@H]2F)c1=O`, the Activity in data set [1] stood at 10 µmol/L. For the same molecule, the pEC50 in data set [2] was 2.82.

Consider `CC(=O)OC[C@H]1O[C@H](n2c(=O)[nH]c(=O)c3c2no[n+]3[O-])[C@@H](OC(C)=O)[C@@H]1OC(C)=O`, for which the Activity in data set [1] came to 398 µmol/L. Also, in data set [2], the pEC50 was 3.16.

`CCn1c(=O)c2c(no[n+]2[O-])n([C@@H]2O[C@H](COC(C)=O)[C@@H](OC(C)=O)[C@H](OC(C)=O)[C@H]2OC(C)=O)c1=O` had an Activity in data set [1] of 1345 µmol/L. Besides, in data set [2], the pEC50 is 2.92.

Take `CCn1c(=O)c2c(no[n+]2[O-])n([C@@H]2O[C@H](COC(C)=O)[C@@H](OC(C)=O)[C@H]2OC(C)=O)c1=O`: in data set [1], the Activity was found to be 377 µmol/L. In data set [2], the pEC50 was 2.91.

For `CC(=O)OC[C@H]1O[C@@H](n2c(=O)n(C)c(=O)c3c2no[n+]3[O-])[C@H](OC(C)=O)[C@@H]1OC(C)=O`, the Activity in data set [1] amounted to 1460 µmol/L. Also, the pEC50 in data set [2] was 3.46.

With `CCn1c(=O)c2c(no[n+]2[O-])n([C@@H]2O[C@H](COCc3ccccc3)[C@@H](OCc3ccccc3)[C@H]2OCc2ccccc2)c1=O`, the Activity in data set [1] turned out to be 1026 µmol/L. For the same molecule, the pEC50 in data set [2] was 3.30.

In the case of `CC(=O)OC[C@H]1O[C@@H](n2c(=O)n(C)c(=O)c3c2no[n+]3[O-])[C@H](OC(C)=O)[C@H]1OC(C)=O`, the Activity in data set [1] is 477 µmol/L. In data set [2], the ED50 entry is “inactive”.

Turning to `O=c1[nH]c(=O)n(COC(CO)CO)c2no[n+]([O-])c12`, in data set [1], the Activity amounted to 2279 µmol/L. Besides, the pEC50 in data set [2] was 3.26.
